Patent US20240099989A1, “AGENT FOR PREVENTING OR IMPROVING PERIPHERAL NEUROPATHY” (KINKI UNIVERSITY, priority 2021, published 2024)

Experiments:
[1] = test system: Peripheral Neuropathy in a Mouse Caused by Bortezomib; assay type: in vivo, Balb/c mice; settings: 1 mg/kg bortezomib + 100 mg/kg orally daily from Day 6 (therapy); from Day 12 onwards
Excerpt: (§1) Six to seven-week-old female Balb/c mice were used for the tests. All the mice were acclimated for seven days after arrival. Then, the mice were grouped into the following four groups: a control group, a group receiving bortezomib, a group receiving xylitol, and a group receiving bortezomib and xylitol (a group receiving bortezomib+xylitol). Each group consisted of five mice.
On Day 8 of acclimation, the mice in the group receiving bortezomib and the group receiving bortezomib+xylitol were intraperitoneally administered with bortezomib at a dose of 1 mg/kg. This day was designated as Day 0 of administration. Thereafter, these mice were intraperitoneally administered with bortezomib at a daily dose of 1 mg/kg on Day 7 and Day 14.
The mice in the group receiving xylitol and the group receiving bortezomib+xylitol were orally administered with xylitol at a dose of 5 mg/kg daily from Day 0.
The mice in the four groups described in (10) of the present example (Example 1) were placed in a cage, and the avoidance response frequency (score) was measured by pressing a filament with a bending force of 0.16 g against the back of the hind paw.
as §1, with “tests as with Example 1.” for “tests.”, “mice. […]” for “mice.”
For the mice in the four groups described in (12) of the present example (Example 2), the avoidance response frequency (score) was measured by pressing a filament with a bending force of 0.16 g against the back of the hind paw. […]
The mice in the four groups described in (10) of the present example (Example 3) were placed in a cage, and the avoidance response frequency (score) was measured by pressing a filament with a bending force of 0.16 g against the back of the hind paw. […]

[2] = test system: Peripheral Neuropathy in a Mouse Caused by Oxaliplatin; experiment: Von Frey test (0.16 g filament), peripheral neuropathy caused by oxaliplatin; assay type: in vivo, Balb/c mice; settings: 6 mg/kg oxaliplatin + 100 mg/kg orally daily from Day 6 (therapy)
Excerpt: as §1, with “tests as with Example 1.” for “tests.”, “oxaliplatin,” for “bortezomib,”, “D-threitol,” for “xylitol,”, “oxaliplatin” for “bortezomib”, “D-threitol” for “xylitol”, “oxaliplatin+D-threitol).” for “bortezomib+xylitol).”
On Day 8 of acclimation, the mice in the group receiving oxaliplatin and the group receiving oxaliplatin+D-threitol were intraperitoneally administered with oxaliplatin at a dose of 6 mg/kg. This day was designated as the first day of the administration (Day 0). Thereafter, these mice were intraperitoneally administered with oxaliplatin at a daily dose of 6 mg/kg on Day 7 and Day 14.
The mice in the group receiving D-threitol and the group receiving oxaliplatin+D-threitol were orally administered with D-threitol at a dose of 5 mg/kg daily from Day 0.
The mice in the four groups described in (1) of the present example (Example 3) were placed in a cage, and the avoidance response frequency (score) was measured by pressing a filament with a bending force of 0.16 g against the back of the hind paw.
On Day 8 of acclimation, the mice in the group receiving oxaliplatin and the group receiving oxaliplatin+D-threitol were intraperitoneally administered with oxaliplatin at a dose of 6 mg/kg. This day was designated as the first day of the administration (Day 0). Thereafter, these mice were intraperitoneally administered with oxaliplatin at the same dose on Day 7 and Day 14 for a total of 3 doses.
The mice in the group receiving 100 mg/kg D-threitol were orally administered with D-threitol at a dose of 100 mg/kg daily from Day 0. The mice in the group receiving oxaliplatin+100 mg/kg D-threitol were orally administered with D-threitol at a dose of 100 mg/kg daily from Day 6 of administration.
For the mice in the four groups described in (1) of the present example (Example 4), the avoidance response frequency (score) was measured by pressing a filament with a bending force of 0.16 g against the back of the hind paw.
Six to seven-week-old female Balb/c mice were used for the tests as with Example 1. All the mice were acclimated for seven days after arrival. Then, the mice were grouped into the following four groups: a control group, a group receiving oxaliplatin, a group receiving L-talitol, and a group receiving oxaliplatin and L-talitol (a group receiving oxaliplatin+L-talitol). Each group consisted of five mice. […]
The mice in the four groups described in (1) of the present example (Example 5) were placed in a cage, and the avoidance response frequency (score) was measured by pressing a filament with a bending force of 0.16 g against the back of the hind paw. […]

SMILES | avoidance response score [1] | avoidance response score ([2]; from Day 15 onwards) | avoidance response score ([2]; from Day 12 onwards)
OC[C@@H](O)[C@H](O)CO [D-threitol] | maintained a score clearly lower than that of the group receiving bortezomib | maintained a score clearly lower than that of the group receiving oxaliplatin | –
OC[C@H](O)[C@H](O)[C@H](O)[C@@H](O)CO [L-talitol] | maintained a score clearly lower than that of the group receiving bortezomib | – | maintained a score clearly lower than that of the group receiving oxaliplatin
OC[C@@H](O)[C@H](O)[C@@H](O)CO [xylitol] | maintained a score clearly lower than that of the group receiving bortezomib | – | maintained a score clearly lower than that of the group receiving oxaliplatin
